Test results from PubChem BioAssay (NCI).
Values joined by “and” are separate entries in the source; they are usually repeats but may differ in a detail not shown here. Equal values may be shown once.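 Exposure lasted 48 hours, with cells grown in 96-well plates and compounds tested at five concentrations. GI50 marks 50% less growth. TGI is the concentration that stops growth completely.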

Legend:
Test in all cases: growth of human tumour cells (NCI), 48 h
[1] = tested on: BT-549 breast
[2] = tested on: CAKI-1 renal
[3] = tested on: EKVX NSCLC
[4] = tested on: HCC-2998 colon
[5] = tested on: HOP-62 NSCLC
[6] = tested on: MALME-3M melanoma
[7] = tested on: NCI-H522 lung
[8] = tested on: RPMI-8226 leukemia
[9] = tested on: RXF 393 renal
[10] = tested on: SF-268 CNS
[11] = tested on: SF-295 CNS
[12] = tested on: SK-MEL-28 melanoma
[13] = tested on: UO-31 renal
[14] = tested on: SF-539 CNS

Work on `CC(C)C1=CC(=O)[C@@](C)(C2[C@H](O)C[C@@]3(C)[C@@H]4CC=C5[C@@H](CC[C@@H](OC6OCC(O)C(O)C6OC6OC(C)C(O)C(O)C6O)C5(C)C)[C@]4(C)C(=O)C[C@]23C)O1` (some centres undefined) yielded a TGI [1] greater than 100 µM, a TGI [2] greater than 100 µM and a TGI [3] greater than 100 µM. For the same molecule, the TGI [4] was greater than 100 µM, the TGI [5] was greater than 100 µM and the TGI [6] was greater than 100 µM. The TGI [7] was greater than 100 µM, the TGI [8] was greater than 100 µM and the TGI [9] was greater than 100 µM. It also gave a TGI [10] greater than 100 µM, a TGI [11] greater than 100 µM and a TGI [12] greater than 100 µM. The TGI [13] was greater than 100 µM.
Work on `CCCCOC(=O)C1CC[C@H]2[C@@H]3CCc4cc(OC(=O)c5cccc6c(=O)c7ccccc7[nH]c56)ccc4[C@H]3CC[C@]12C` (some centres undefined) yielded a TGI [1] of 15 µM, a TGI [2] of 13.7 µM and a TGI [3] of 8.77 µM. The TGI [4] was 15.8 µM, the TGI [5] was 16.4 µM and the TGI [6] was 18.7 µM. For the same molecule, the TGI [7] was 16.9 µM, the TGI [8] was 20.6 µM and the TGI [9] was 17 µM. The TGI [10] was 19.6 µM, the TGI [11] was 16.1 µM and the TGI [12] was 21.2 µM. The TGI [13] was 14.9 µM.
Work on `Br[C@@H]1[C@H]2c3nc4ccccc4nc3[C@@H]1C[C@H]2Br` yielded a TGI [1] greater than 100 µM, a TGI [2] greater than 100 µM and a TGI [3] greater than 100 µM. It also gave a TGI [4] greater than 100 µM, a TGI [5] greater than 100 µM and a TGI [6] greater than 100 µM. For the same molecule, the TGI [7] was greater than 100 µM, the TGI [9] was 94.6 µM and the TGI [10] was greater than 100 µM. For the same molecule, the TGI [11] was greater than 100 µM, the TGI [12] was greater than 100 µM and the TGI [13] was greater than 100 µM.
Work on `N/C1=C/C(=O)NC(=O)c2c(c3ccccc3oc2=O)C1` yielded a TGI [1] greater than 100 µM, a TGI [2] greater than 100 µM and a TGI [3] greater than 100 µM. It also gave a TGI [4] greater than 100 µM, a TGI [5] greater than 100 µM and a TGI [6] greater than 100 µM. For the same molecule, the TGI [7] was greater than 100 µM, the TGI [8] was greater than 100 µM and the TGI [9] was greater than 100 µM. It also gave a TGI [10] greater than 100 µM, a TGI [12] greater than 100 µM and a TGI [13] greater than 100 µM.
With `CC1OC2OC3C(OCC(O)C3O)OC(=O)[C@]34CCC(C)(C)CC3C3=CCC5[C@@]6(C)C[C@H](O)[C@H](OC7OC(CO)C(O)C(O)C7OC7OCC(OC(=O)CC(C)(O)CC(=O)OC1C(O)C2O)C(O)C7O)[C@@](C)(CO)C6CC[C@@]5(C)[C@]3(C)CC4` (some centres undefined) the TGI [1] was 24.8 µM, the TGI [4] was 5.12 µM and the TGI [5] was 6.8 µM. For the same molecule, the TGI [6] was 12.3 µM, the TGI [7] was 12 µM and the TGI [8] was 17.7 µM. The TGI [10] was 9.2 µM, the TGI [11] was 12.4 µM and the TGI [14] was 26 µM. It also gave a TGI [12] of 4.97 µM and a TGI [13] of 18.5 µM.
`CC(C)=CC(=O)c1[nH]c2ccccc2c1CC(=O)NCCc1cncn1C` gave a TGI [1] greater than 100 µM, a TGI [2] greater than 100 µM and a TGI [3] of 83.4 µM. The TGI [4] was 81.5 µM, the TGI [6] was greater than 100 µM and the TGI [7] was 84.6 µM. For the same molecule, the TGI [9] was 83.4 µM, the TGI [10] was greater than 100 µM and the TGI [11] was greater than 100 µM. It also gave a TGI [14] greater than 100 µM, a TGI [12] greater than 100 µM and a TGI [13] of 47.6 µM.
`O=C1CSC(c2ccc(Cl)cc2Cl)N1c1ccc(Oc2ccc(Cl)cc2)c(Cl)c1` (centres undefined) gave a TGI [1] of 68.2 µM, a TGI [2] of 98.1 µM and a TGI [3] of 74 µM. It also gave a TGI [4] greater than 100 µM, a TGI [5] of 59.8 µM and a TGI [6] of 38.2 µM. The TGI [7] was 31.5 µM, the TGI [8] was 68.3 µM and the TGI [10] was 51.1 µM. The TGI [11] was 50.9 µM, the TGI [14] was 86.7 µM and the TGI [12] was greater than 100 µM. For the same molecule, the TGI [13] was 32.6 µM.
In the case of `CCOC(=O)C1(C#N)CC1`, the TGI [1] is reported as greater than 100 µM, the TGI [2] is reported as greater than 100 µM and the TGI [3] is reported as greater than 100 µM. For the same molecule, the TGI [4] was greater than 100 µM, the TGI [5] was greater than 100 µM and the TGI [6] was greater than 100 µM. It also gave a TGI [7] greater than 100 µM, a TGI [9] greater than 100 µM and a TGI [10] greater than 100 µM. The TGI [11] was greater than 100 µM, the TGI [14] was greater than 100 µM and the TGI [12] was greater than 100 µM. The TGI [13] was greater than 100 µM.
`O=C(O)c1nc2ccc(C(F)(F)F)cc2nc1Nc1ccc(F)cc1` showed a TGI [1] of 44.2 µM, a TGI [2] of 78 µM and a TGI [3] of 73.9 µM. It also gave a TGI [4] of 34.3 µM, a TGI [5] of 34.7 µM and a TGI [6] of 38.3 µM. It also gave a TGI [7] of 24.7 µM, a TGI [9] of 31.5 µM and a TGI [10] of 48.1 µM. It also gave a TGI [11] of 37.7 µM, a TGI [12] greater than 100 µM and a TGI [13] of 24.6 µM.
In the case of `O=C1C(c2c(O)[nH]c3ccc(Br)cc23)=Nc2ccc(Br)cc21`, the TGI [1] is reported as greater than 100 µM, the TGI [2] is reported as greater than 100 µM and the TGI [3] is reported as greater than 100 µM. It also gave a TGI [4] greater than 100 µM, a TGI [5] greater than 100 µM and a TGI [6] greater than 100 µM. It also gave a TGI [7] greater than 100 µM, a TGI [8] greater than 100 µM and a TGI [9] of 40.7 µM. The TGI [10] was greater than 100 µM, the TGI [11] was greater than 100 µM and the TGI [12] was greater than 100 µM. For the same molecule, the TGI [13] was greater than 100 µM.
Work on `[N-]=[N+]=CC(=O)OCCCCl` yielded a TGI [1] greater than 100 µM, a TGI [2] greater than 100 µM and a TGI [3] greater than 100 µM. It also gave a TGI [4] greater than 100 µM, a TGI [5] greater than 100 µM and a TGI [6] greater than 100 µM. The TGI [7] was greater than 100 µM, the TGI [8] was greater than 100 µM and the TGI [9] was greater than 100 µM. The TGI [10] was greater than 100 µM, the TGI [11] was greater than 100 µM and the TGI [12] was greater than 100 µM. For the same molecule, the TGI [13] was greater than 100 µM.
Work on `C#CC(O)/C=C/CCCCCCC#CC/C=C\CC#CCCCCCCCCC(O)C#C` (centres undefined) yielded a TGI [1] of 20.4 µM, a TGI [2] of 9.08 µM and a TGI [3] of 10.3 µM. For the same molecule, the TGI [4] was 9.8 µM, the TGI [5] was 12 µM and the TGI [6] was 4.41 µM. The TGI [7] was 0.526 µM, the TGI [9] was 31.6 µM and the TGI [10] was 25.8 µM. The TGI [11] was 30.3 µM, the TGI [14] was 40.4 µM and the TGI [12] was 13.1 µM. For the same molecule, the TGI [13] was 1.41 µM.
Work on `CC1(C)OC2OC(C(COS(=O)(=O)C(F)(F)F)N=[N+]=[N-])C(OC(=O)c3ccccc3)C2O1` (centres undefined) yielded a TGI [1] greater than 100 µM, a TGI [2] greater than 100 µM and a TGI [3] greater than 100 µM. It also gave a TGI [4] greater than 100 µM, a TGI [5] greater than 100 µM and a TGI [6] greater than 100 µM. For the same molecule, the GI50 [8] was > 100 µM and 26.7 µM, the TGI [8] was greater than 100 µM and the TGI [9] was greater than 100 µM. For the same molecule, the TGI [10] was greater than 100 µM, the TGI [11] was greater than 100 µM and the TGI [14] was greater than 100 µM. For the same molecule, the TGI [12] was greater than 100 µM and the TGI [13] was greater than 100 µM.
